Assay results from patent US5462926A (Biomeasure, Inc., priority 1993, dated 1995).
Where a SMILES comes first, the peptide text is derived from it. Bridges are numbered along the chain shown (N, C = ends). [ ]: non-standard residue; d: D form. 2Nal = N[C@@H](Cc1ccc2ccccc2c1)C(=O)O; d2Nal = N[C@H](Cc1ccc2ccccc2c1)C(=O)O

Legend:
[1] = test system: endothelin-1-stimulated increases in [3H]IP; experiment: Endothelin-1-stimulated [3H]IP in C-6 glioblastoma cells; format: cell-based, rat
Experimental: (§1) Total phosphoinositides in C-6 cells and in NMB-R transfected cells were determined as described previously, with minor modifications [Benya, R. V. et al. Mol. Pharmacol. 42:1058 (1992); and Wang, L-H. et al. Biochem. Jo 286:641 (1992)]. Cells were grown to confluence in 24-well plates and then loaded with 100 μCi/ml myo-[2-^3 H]inositol in Dulbecco's modified essential medium with 2% fetal bovine serum at 37° C. for 48 hrs. Cells were washed and incubated in phosphoinositide buffer (standard buffer additionally containing 10 mM LiCl, 20 mM HEPES, 2 mM CaCl2, 2% BSA, and 1.2 mM MgSO4) for 15 min and then for 60 min at 37° C. with agonists at various concentrations or with 3 nM NMB (a half-maximal effective concentration) and possible antagonists at different concentrations. Reactions were halted using ice-cold 1% HCl in methanol, and the inositol phosphates (IP) were isolated as described previously [Bologna, M. et al. Cancer 63:1714 (1989); and Endo, T. et al. J. Endocrinolo 131:313 (1991)]. Briefly, after loading of the anion exchange column, free [^3 H]glycerophosphorylinositol was removed by washing with 5 mM disodium tetraborate in 60 mM sodium formate. Total [^3 H]inositol phosphates were then eluted using 100 mM formic acid in 1.0M ammonium formate as described previously [Benya, R. V. et al. Mol. Pharmacol. 42:1058 (1992); and Wang, L-H. et al. Biochem. J. 286:641 (1992 )].
(§2) without SSoctapeptide analog added. C6 glioblastoma cells (50,000
(§3) cells/well) were incubated with myo[2^3 H]inositol for two days,
(§4) washed and then incubated with or without the indicated peptides for 60
(§5) minutes at 37° C. in phosphoinositide buffer containing 10 mM LiCl
(§6) as described in METHODS. [^3 H]IP was measured using Dowex AG1X8 anio

somatostatin receptors = target: T1, somatostatin receptors (Rattus norvegicus, UniProt P30680); experiment: Somatostatin membrane receptor assay, 125I-[Tyr11]SS-14, AR 42J cell membranes; format: binding; conditions: Cheng method; table prints no unit (b360 gives nM for a Table 4 value); read-out: affinity, 125I-[Tyr11]SS-14, AR 42J Cell Membranes (somatostatin receptors)
T1 construct: endogenous in cells; host or cells: rat AR 42J pancreatic acinar tumor cell membranes
T1 sequence (P30680 whole entry): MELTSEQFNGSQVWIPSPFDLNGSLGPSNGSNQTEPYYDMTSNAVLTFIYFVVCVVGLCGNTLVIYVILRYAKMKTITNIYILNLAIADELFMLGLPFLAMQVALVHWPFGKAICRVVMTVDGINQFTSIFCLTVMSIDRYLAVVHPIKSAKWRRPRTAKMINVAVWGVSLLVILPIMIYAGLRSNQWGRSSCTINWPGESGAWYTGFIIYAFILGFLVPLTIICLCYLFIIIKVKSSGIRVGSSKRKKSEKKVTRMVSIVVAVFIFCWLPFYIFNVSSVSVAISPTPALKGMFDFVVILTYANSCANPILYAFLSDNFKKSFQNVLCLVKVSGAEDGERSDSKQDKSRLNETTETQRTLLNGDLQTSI

[2] = target: T2, GRP receptors on rat pancreatic acini (Rattus norvegicus, UniProt P52500); experiment: Binding of 125I-[Tyr4]bombesin to pancreatic acini; conditions: read-out: Ki 125I-[Tyr4]Bn Binding, GRP Receptor, Rat Pancreatic Acini; Ki by Cheng method
T2 construct: from tissue; host or cells: dispersed pancreatic acini
T2 sequence (P52500 whole entry): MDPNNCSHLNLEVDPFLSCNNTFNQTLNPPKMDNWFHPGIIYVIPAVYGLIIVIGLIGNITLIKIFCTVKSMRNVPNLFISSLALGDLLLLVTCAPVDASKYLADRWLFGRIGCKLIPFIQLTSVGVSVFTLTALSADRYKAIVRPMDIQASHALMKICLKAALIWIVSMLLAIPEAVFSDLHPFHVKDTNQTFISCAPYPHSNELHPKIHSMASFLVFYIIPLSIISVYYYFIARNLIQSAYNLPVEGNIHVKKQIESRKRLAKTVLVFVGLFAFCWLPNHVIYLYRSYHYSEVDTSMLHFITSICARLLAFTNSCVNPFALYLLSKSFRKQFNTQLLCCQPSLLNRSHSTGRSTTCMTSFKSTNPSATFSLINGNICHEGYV
Excerpt: (§7) Nonsaturable binding was<10% of total binding in all experiments.

GRP receptor = GRP receptor (Rattus norvegicus, UniProt P52500); experiment: Amylase release from rat pancreatic acini (alone or Bn-stimulated); format: cell-based; set-up: from tissue; host or cells: dispersed pancreatic acini; conditions: for Amylase Release, analog Alone (10 μM): analog 10 μM alone, control 4 ± 1; for Amylase Release, analog Plus Bn (0.3 nM): analog 10 μM plus Bn 0.3 nM, Bn without analog 15 ± 1; for IC50: read-out: IC50 Amylase Release, GRP Receptor, Rat Pancreatic Acini
GRP receptor, sequence (P52500 whole entry): as above
Experimental: pancreatic acini or [^3 H]myo[2H]inositolloaded NMBR transfected cell
were incubated either with no additives, the somatostatin octapeptide
analog, Bn, or NMB, or a combination for 30 min at 37° C.. Amylase
release from pancreatic acini was expressed at the indicated percent of
the total cellular amylase released during the incubation. [^3 H]IP i
expressed in dpm's. To test for inhibitory effects, the effect of
somatostatin analog (10 μM) was determined on 0.3 nM Bnstimulated

NMB receptor [3] = target: T3, NMB receptor (Rattus norvegicus, UniProt P24053); experiment: [3H]IP in C-6 glioblastoma cells (alone or NMB-stimulated); format: cell-based; set-up: a full length NMB-preferring bombesin receptor clone generated from rat esophagus; expressed in transfected cells
T3 sequence (P24053 1-390): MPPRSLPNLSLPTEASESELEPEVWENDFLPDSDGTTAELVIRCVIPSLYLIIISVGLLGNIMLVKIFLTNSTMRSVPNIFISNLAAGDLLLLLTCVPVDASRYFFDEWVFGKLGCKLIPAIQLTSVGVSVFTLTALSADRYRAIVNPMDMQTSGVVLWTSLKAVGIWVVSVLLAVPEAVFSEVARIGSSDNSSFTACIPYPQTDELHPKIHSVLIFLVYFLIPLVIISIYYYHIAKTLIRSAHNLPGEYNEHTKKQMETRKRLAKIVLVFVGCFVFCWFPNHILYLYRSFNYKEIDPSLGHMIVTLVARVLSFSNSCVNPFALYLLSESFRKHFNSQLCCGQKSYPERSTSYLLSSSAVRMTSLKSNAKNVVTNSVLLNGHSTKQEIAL
Experimental: as §1, §2, §3, §4, §5, §6

NMB receptor [4] = target: T3, NMB receptor; experiment: NMB membrane receptor assay, 125I-NMB, rat olfactory bulb membranes; format: binding; set-up: Membranes were prepared from rat olfactory bulb (NMB membrane receptor assay); from tissue; host or cells: rat olfactory bulb membranes; conditions: for Ki: Cheng method, unit inferred, read-out: affinity, 125I-NMB, Rat Olfactory bulb membranes (neuromedin B receptors)
[5] = test system: GRP receptors on rat pancreatic acini; experiment: Binding of 125I-[Tyr4]bombesin to pancreatic acini; conditions: NMB-R transfected cells vs GRP-R on rat pancreatic acini
Excerpt: as §7

SMILES | effect on endothelin-1-stimulated increases in [3H]IP in C-6 cells [1] | [3H]IP with ET-1 (0.1 nM) ([1]; analog 10 μM, ET-1 alone 11.0 ± 2.1) [dpm × 10^3] | Ki (somatostatin receptors) [nM] | Ki [2] [µM] | Amylase Release, analog Alone (10 μM) (GRP receptor) [% total] | Amylase Release, analog Plus Bn (0.3 nM) (GRP receptor) [% total] | IC50 (GRP receptor) [µM] | effect on NMB-stimulated increases in [3H]IP in C-6 cells (NMB receptor [3]) | [3H]IP, no peptide added (NMB receptor [3]; analog 10 μM, 60 min 37° C., control 7.2 ± 1.0) [dpm × 10^3] | [3H]IP with NMB (10 nM) (NMB receptor [3]; analog 10 μM, NMB alone 21.0 ± 1.8) [dpm × 10^3] | Ki (NMB receptor [4]) [µM] | fold greater affinity for NMB receptors than mu opioid receptors (NMB receptor [4]; membranes, Table 4) [fold] | fold greater affinity for NMB than GRP receptors [5] [fold] | fold higher affinity for NMB receptors than somatostatin receptors (NMB receptor [4]; membranes, Table 4) [fold]
C[C@@H](O)[C@H](NC(=O)[C@@H]1CSSC[C@H](NC(=O)[C@H](N)Cc2ccc3ccccc3c2)C(=O)N[C@@H](Cc2ccc(O)cc2)C(=O)N[C@H](Cc2c[nH]c3ccccc23)C(=O)N[C@@H](CCCCN)C(=O)N[C@@H](Cc2ccc3ccccc3c2)C(=O)N1)C(N)=O [Analog #2, H2 -D-Nal-Cys-Tyr-D-Trp-Lys-Nal-Cys-Thr-NH2] | no effect | 11.2 ± 1.9 | 0.5 ± 0.1 | 16.3 ± 3.82 | 5 ± 1 | 13 ± 1 | > 10 | inhibited | 7.3 ± 1.2 | 14.3 ± 4.2 | 0.085 ± 0.02 | – | – | –
CC(C)[C@@H]1NC(=O)[C@H](CCCCN)NC(=O)[C@@H](Cc2c[nH]c3ccccc23)NC(=O)[C@H](Cc2ccc(O)cc2)NC(=O)[C@@H](NC(=O)[C@H](N)Cc2ccccc2)CSSC[C@@H](C(=O)N[C@@H](Cc2ccc3ccccc3c2)C(N)=O)NC1=O [Analog #4, H2 -D-Phe-Cys-Tyr-D-Trp-Lys-Val-Cys-Nal-NH2] (H-[dF]CY[dW]KVC[2Nal]-NH2; disulfide 2-7) | – | – | 0.24 ± 0.13 | 21.9 ± 4.26 | 4 ± 2 | 14 ± 1 | > 10 | – | – | – | 0.245 ± 0.13 | – | – | –
C[C@@H](O)[C@@H]1NC(=O)[C@H](CCCCN)NC(=O)[C@@H](Cc2c[nH]c3ccccc23)NC(=O)[C@H](Cc2ccc(O)cc2)NC(=O)[C@@H](NC(=O)[C@H](N)Cc2ccccc2)CSSC[C@@H](C(=O)N[C@@H](Cc2ccc3ccccc3c2)C(N)=O)NC1=O [Analog #7, H2 -D-phe-Cys-Tyr-D-Trp-Lys-Thr-Cys-Nal-NH2] (H-[dF]CY[dW]KTC[2Nal]-NH2; disulfide 2-7) | – | – | 0.86 ± 0.23 | 31 ± 4.65 | 3 ± 1 | 16 ± 1 | > 10 | – | – | – | 0.74 ± 0.16 | – | – | –
CC(C)[C@@H]1NC(=O)[C@H](CCCCN)NC(=O)[C@@H](Cc2c[nH]c3ccccc23)NC(=O)[C@H](Cc2ccc(O)cc2)NC(=O)[C@@H](NC(=O)[C@H](N)Cc2ccc3ccccc3c2)CSSC[C@@H](C(=O)N[C@H](Cc2ccc3ccccc3c2)C(N)=O)NC1=O [Analog #8, H2 -D-Nal-Cys-Tyr-D-Trp-Lys-Val-Cys-D-Nal-NH2] (H-[d2Nal]CY[dW]KVC[d2Nal]-NH2; disulfide 2-7) | – | – | 3.9 ± 0.1 | > 10 | 2 ± 1 | 14 ± 1 | > 10 | – | – | – | 1.48 ± 0.5 | – | – | –
CC(C)[C@@H]1NC(=O)[C@H](CCCCN)NC(=O)[C@@H](Cc2c[nH]c3ccccc23)NC(=O)[C@H](Cc2ccc(O)cc2)NC(=O)[C@@H](NC(=O)[C@@H](N)Cc2ccc3ccccc3c2)CSSC[C@@H](C(=O)N[C@H](Cc2ccc3ccccc3c2)C(N)=O)NC1=O [Analog #9, H2 -Nal-Cys-Tyr-D-Trp-Lys-Val-Cys-D-Nal-NH2] (H-[2Nal]CY[dW]KVC[d2Nal]-NH2; disulfide 2-7) | – | – | 2.8 ± 0.7 | > 10 | 3 ± 1 | 16 ± 1 | > 10 | – | – | – | 0.59 ± 0.17 | – | – | –
CC(C)[C@@H]1NC(=O)[C@H](CCCCN)NC(=O)[C@@H](Cc2c[nH]c3ccccc23)NC(=O)[C@H](Cc2ccc(O)cc2)NC(=O)[C@H](NC(=O)[C@H](N)Cc2ccc3ccccc3c2)CSSC[C@@H](C(=O)N[C@@H](Cc2ccc3ccccc3c2)C(N)=O)NC1=O [Analog #10, H2 -D-Nal-D-Cys-Tyr-D-Trp-Lys-Val-Cys-Nal-NH2] (H-[d2Nal][dC]Y[dW]KVC[2Nal]-NH2; disulfide 2-7) | – | – | 91 ± 23 | > 10 | 3 ± 1 | 16 ± 1 | > 10 | – | – | – | 0.92 ± 0.35 | – | – | –
CC(C)[C@@H]1NC(=O)[C@H](CCCCN)NC(=O)[C@@H](Cc2c[nH]c3ccccc23)NC(=O)[C@H](Cc2ccc(O)cc2)NC(=O)[C@@H](NC(=O)[C@H](N)Cc2ccc3ccccc3c2)CSSC[C@H](C(=O)N[C@@H](Cc2ccc3ccccc3c2)C(N)=O)NC1=O [Analog #11, H2 -D-Nal-Cys-Tyr-D-Trp-Lys-Val-D-Cys-Nal-NH2] (H-[d2Nal]CY[dW]KV[dC][2Nal]-NH2; disulfide 2-7) | – | – | 48 ± 3 | > 10 | 2 ± 1 | 14 ± 1 | > 10 | – | – | – | 0.23 ± 0.07 | > 50 | – | –
CC(C)[C@@H]1NC(=O)[C@H](CCCCN)NC(=O)[C@@H](Cc2c[nH]c3ccccc23)NC(=O)[C@H](Cc2ccc(O)cc2)NC(=O)[C@@H](NC(=O)[C@H](N)Cc2c[nH]c3ccccc23)CSSC[C@@H](C(=O)N[C@@H](Cc2ccc3ccccc3c2)C(N)=O)NC1=O [Analog #12, H2 -D-Trp-Cys-Tyr-D-Trp-Lys-Val-Cys-Nal-NH2] (H-[dW]CY[dW]KVC[2Nal]-NH2; disulfide 2-7) | – | – | 3.1 ± 1.6 | > 10 | 3 ± 1 | 13 ± 1 | > 10 | – | – | – | 1.18 ± 0.52 | – | – | –
NCCCC[C@@H]1NC(=O)[C@@H](Cc2c[nH]c3ccccc23)NC(=O)[C@H](Cc2ccc(O)cc2)NC(=O)[C@@H](NC(=O)[C@H](N)Cc2ccc3ccccc3c2)CSSC[C@@H](C(=O)N[C@@H](Cc2ccc3ccccc3c2)C(N)=O)NC(=O)[C@H](Cc2ccccc2)NC1=O [Analog #13, H2 -D-Nal-Cys-Tyr-D-Trp-Lys-Phe-Cys-Nal-NH2] (H-[d2Nal]CY[dW]KFC[2Nal]-NH2; disulfide 2-7) | – | – | 194 ± 27 | > 10 | 3 ± 1 | 14 ± 1 | > 10 | – | – | – | 0.27 ± 0.09 | – | > 100 | –
CC(C)[C@@H]1NC(=O)[C@H](Cc2c[nH]cn2)NC(=O)[C@@H](Cc2c[nH]c3ccccc23)NC(=O)[C@H](Cc2ccc(O)cc2)NC(=O)[C@@H](NC(=O)[C@H](N)Cc2ccc3ccccc3c2)CSSC[C@@H](C(=O)N[C@@H](Cc2ccc3ccccc3c2)C(N)=O)NC1=O [Analog #14] (H-[d2Nal]CY[dW]HVC[2Nal]-NH2; disulfide 2-7; N-terminus assumed) | – | – | 1870 ± 30 | > 10 | 2 ± 1 | 13 ± 1 | > 10 | – | – | – | 0.47 ± 0.24 | – | – | 3
